Measurements as given in PMC12013614 (RSC Advances, 2025).
Marks after values point to notes of the source that are not given here.

Key:
[1] = molecular target: VEGFR-2 (Homo sapiens, UniProt P35968); test: In vitro VEGFR-2 kinase inhibition; type: biochemical
[2] = test system: MDA-MB-231 cells; test: Apoptosis analysis, Annexin V-FITC/PI flow cytometry; type: cell-based
[3] = test system: MDA-231 cells; test: Cell migration and wound healing assay; type: cell-based; conditions: 11 μM (0.5 IC50), untreated control 58.95
[4] = test system: BAX; test: qRT-PCR gene expression, BAX; type: cell-based; conditions: MDA-231 cells; 21.68 μM; control set to 1; mean ± SEM
[5] = test system: BAX/Bcl-2 ratio; type: cell-based; conditions: MDA-231 cells; 21.68 μM; control set to 1
[6] = test system: caspase-9; test: qRT-PCR gene expression, caspase-9; type: cell-based; conditions: MDA-231 cells; 21.68 μM; control set to 1; mean ± SEM
[7] = test system: Bcl-2; test: qRT-PCR gene expression, Bcl-2; type: cell-based; conditions: MDA-231 cells; 21.68 μM; control set to 1; mean ± SEM
[8] = test system: caspase-8; test: qRT-PCR gene expression, caspase-8; type: cell-based; conditions: MDA-231 cells; 21.68 μM; control set to 1; mean ± SEM
[9] = test system: MDA-MB-231 cells; test: Cell cycle analysis, PI flow cytometry; type: cell-based; conditions: 21.68 µM, 48 h

Sequence of VEGFR-2 (P35968 20-1356): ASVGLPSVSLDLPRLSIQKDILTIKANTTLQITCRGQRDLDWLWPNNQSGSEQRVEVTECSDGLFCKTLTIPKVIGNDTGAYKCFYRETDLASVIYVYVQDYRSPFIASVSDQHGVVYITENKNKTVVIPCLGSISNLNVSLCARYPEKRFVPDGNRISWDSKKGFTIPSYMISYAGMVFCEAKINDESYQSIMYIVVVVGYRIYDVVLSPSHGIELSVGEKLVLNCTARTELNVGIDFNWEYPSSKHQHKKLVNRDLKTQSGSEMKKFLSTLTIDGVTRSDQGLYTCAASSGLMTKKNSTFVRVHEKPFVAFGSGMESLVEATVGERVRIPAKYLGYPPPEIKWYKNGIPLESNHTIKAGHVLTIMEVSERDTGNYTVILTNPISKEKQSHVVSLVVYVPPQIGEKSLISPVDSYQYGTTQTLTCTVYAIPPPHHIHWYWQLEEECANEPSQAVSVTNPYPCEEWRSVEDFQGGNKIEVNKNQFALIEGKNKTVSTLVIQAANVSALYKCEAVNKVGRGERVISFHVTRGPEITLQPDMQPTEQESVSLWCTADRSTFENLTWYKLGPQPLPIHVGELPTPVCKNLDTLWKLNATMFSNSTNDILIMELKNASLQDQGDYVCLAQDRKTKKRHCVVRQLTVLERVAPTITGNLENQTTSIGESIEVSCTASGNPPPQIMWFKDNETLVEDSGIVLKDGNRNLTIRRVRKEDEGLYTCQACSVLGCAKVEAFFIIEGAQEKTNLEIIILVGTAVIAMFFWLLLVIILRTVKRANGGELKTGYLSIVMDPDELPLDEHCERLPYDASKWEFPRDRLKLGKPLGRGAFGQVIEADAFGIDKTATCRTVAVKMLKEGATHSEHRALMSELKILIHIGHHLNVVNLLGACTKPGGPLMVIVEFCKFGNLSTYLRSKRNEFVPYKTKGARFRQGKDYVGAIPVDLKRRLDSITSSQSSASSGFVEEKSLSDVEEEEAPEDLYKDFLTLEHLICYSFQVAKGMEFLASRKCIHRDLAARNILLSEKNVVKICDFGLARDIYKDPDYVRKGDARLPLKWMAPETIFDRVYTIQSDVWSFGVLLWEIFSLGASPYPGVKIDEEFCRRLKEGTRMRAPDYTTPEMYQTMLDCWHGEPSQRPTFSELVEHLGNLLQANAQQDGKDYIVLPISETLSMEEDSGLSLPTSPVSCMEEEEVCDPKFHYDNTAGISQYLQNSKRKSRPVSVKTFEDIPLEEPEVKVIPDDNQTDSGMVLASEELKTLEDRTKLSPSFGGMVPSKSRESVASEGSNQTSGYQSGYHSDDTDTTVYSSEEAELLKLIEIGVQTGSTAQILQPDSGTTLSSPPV

Structure (SMILES): COc1cccc(NC(=O)Nc2ccc(Oc3nc4ccccc4n4cnnc34)cc2)c1 [11d, 1-(4-([1,2,4]Triazolo[4,3-a]quinoxalin-4-yloxy)phenyl)-3-(3-methoxyphenyl)urea]
- IC50 [1]: 0.0623 ± 0.00277 µM
- viability at 21.68 µM ([2]; Homo sapiens, MDA-MB-231, 48 h, read-out: Viable (left bottom)): 20.2%
- Necrosis (left top) ([2]; MDA-MB-231, 21.68 µM, 48 h, untreated 0.32): 1.91 ^a %
- Apoptosis, Late (right top) ([2]; MDA-MB-231, 21.68 µM, 48 h, untreated 0.45): 31.49 ^a %
- Apoptosis, Early (right bottom) ([2]; MDA-MB-231, 21.68 µM, 48 h, untreated 3.84): 46.43 ^a %
- Quantitative closure (%) for scratched assay after 48 h [3]: 27.51%
- Gene expression (fold change), BAX [4]: 5.48 ± 0.45 ^a fold change
- Gene expression (fold change), BAX/Bcl-2 ratio [5]: 16.11 ± 1.01 fold change
- Gene expression (fold change), Caspases-9 [6]: 5.58 ± 0.40 ^a fold change
- Gene expression (fold change), Bcl-2 [7]: 0.34 ± 0.01 ^a fold change
- Gene expression (fold change), Caspases-8 [8]: 4.15 ± 0.48 ^a fold change
- Cell cycle distribution (%), % G2/M ([9]; untreated 10.59): 3.74 ^a %
- Cell cycle distribution (%), % sub-G1 ([9]; untreated 19.48): 15.75%
- Cell cycle distribution (%), % S ([9]; untreated 24.95): 16.45 ^a %
- Cell cycle distribution (%), % G1 ([9]; untreated 44.98): 64.06 ^a %
